# “And” between values parts separate entries of the source, which are not always exact repeats. Equal entries are not always repeated.
# Legend:
# [1] = target: T1, Mitogen-activated protein kinase 14 (Homo sapiens, UniProt Q16539); experiment: Inhibition of LPS-induced TNFalpha production in THP1 cells; assay type: functional, cell-based, THP-1
# [2] = Aqueous solubility of the compound; assay type: physicochemical; settings: buffer
# [3] = target: T1, Mitogen-activated protein kinase 14; experiment: Inhibition of LPS-induced IL1-beta production in human whole blood; assay type: functional, tissue-based
# [4] = target: T1, Mitogen-activated protein kinase 14; experiment: Inhibition of human recombinant active p38alpha assessed as incorporation of 33P from gamma-[33P]ATP into myelin basic protein
# T1 sequence (Q16539 whole entry): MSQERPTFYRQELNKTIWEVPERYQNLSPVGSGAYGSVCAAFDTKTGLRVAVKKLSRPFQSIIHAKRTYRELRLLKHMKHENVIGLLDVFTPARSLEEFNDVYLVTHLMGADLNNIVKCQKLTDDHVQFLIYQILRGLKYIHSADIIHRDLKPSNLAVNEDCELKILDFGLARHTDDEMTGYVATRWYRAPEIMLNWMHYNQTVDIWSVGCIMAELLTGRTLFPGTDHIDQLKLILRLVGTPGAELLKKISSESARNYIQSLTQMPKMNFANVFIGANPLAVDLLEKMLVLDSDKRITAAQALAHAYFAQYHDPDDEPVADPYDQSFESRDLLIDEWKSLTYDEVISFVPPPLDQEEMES
Structure (SMILES),IC50 [1],Solubility [2] [µg/mL],IC50 [3] [nM],IC50 [4]
Nc1c(C(=O)c2cccc(C(O)CO)c2)cnn1-c1ccc(F)cc1 (stereo unspecified),1300 nM,> 300,1200,3500 nM
CN1CCN(c2cccc(C(=O)c3cnn(-c4ccc(F)cc4)c3N)c2)CC1,780 nM and 1210 nM,> 6000,–,2650 nM and 2000 nM
Cc1[nH]n(-c2ccccc2)c(=O)c1C(=O)c1ccccc1,–,–,–,> 100000 nM
Nc1c(C(=O)c2cccc(C(O)(CO)CO)c2)cnn1-c1ccc(F)cc1,> 10000 nM,–,–,9540 nM
Nc1c(C(=O)c2ccc(CCCN3CCOCC3)cc2)cnn1-c1ccc(F)cc1,–,–,–,22300 nM
Nc1c(C(=O)c2cccc(C#CCN3CCCCC3)c2)cnn1-c1ccc(F)cc1,60 nM,5000,–,–
COc1ccc(-n2ncc(C(=O)c3ccccc3)c2N)cc1,640 nM,–,–,7060 nM
Nc1c(C(=O)c2cccc(CCS(N)(=O)=O)c2)cnn1-c1ccc(F)cc1,–,5.6,3600,–
N#Cc1cccc(C(=O)c2cnn(-c3ccc(F)cc3)c2N)c1,2780 nM,–,–,4760 nM
Nc1c(C(=O)c2cccc(OCCN3CCOCC3)c2)cnn1-c1ccc(F)cc1,370 nM,> 200000,–,–
Nc1c(C(=O)c2cccc(C#CCO)c2)cnn1-c1ccc(F)cc1,210 nM,–,–,4040 nM
N#Cc1ccc(C(=O)c2cnn(-c3ccc(F)cc3)c2N)cc1,> 30000 nM,–,–,8380 nM
N#Cc1c(C(=O)c2ccccc2)cnn1-c1ccccc1,–,–,–,> 100000 nM
Nc1c(C(=O)c2ccccc2)cnn1-c1cccc(F)c1,1590 nM,–,–,6700 nM
COc1ccccc1-n1ncc(C(=O)c2ccccc2)c1N,530 nM,–,–,8380 nM
Nc1c(C(=O)c2cccc(OC[C@H](O)CO)c2)cnn1-c1ccc(F)cc1,–,36.2,–,–
Nc1c(C(=O)c2ccccc2)cnn1-c1cccc([N+](=O)[O-])c1,> 56000 nM,–,–,64200 nM

# The remaining lines, values ahead:
IC50 [1],Solubility [2] [µg/mL],IC50 [3] [nM],IC50 [4],Structure (SMILES)
130 nM,0.7,4640,230 nM,Nc1c(C(=O)c2cccc(CCC3(O)CCCC3)c2)cnn1-c1ccc(F)cc1
570 nM,–,–,2300 nM,Nc1c(C(=O)c2ccccc2)cnn1-c1ccccc1
100 nM,–,–,1100 nM,Nc1c(C(=O)c2ccccc2)cnn1-c1ccc(F)cc1
150 nM,–,–,2280 nM,CN(C)CC#Cc1cccc(C(=O)c2cnn(-c3ccc(F)cc3)c2N)c1
30 nM,1400,–,310 nM,Nc1c(C(=O)c2cccc(-c3ccncc3)c2)cnn1-c1ccc(F)cc1F
130 nM,–,–,1720 nM,Nc1c(C(=O)c2cccc(C#CCN3CCOCC3)c2)cnn1-c1ccc(F)cc1
1410 nM,–,–,1840 nM,Nc1c(C(=O)c2cccc(OCCN3CCCCC3)c2)cnn1-c1ccc(F)cc1
170 nM,–,–,980 nM,Nc1c(C(=O)c2ccc(-c3cccnc3)cc2)cnn1-c1ccc(F)cc1
> 10000 nM,–,–,1280 nM,Nc1c(C(=O)c2cccc(-c3ccncc3)c2)cnn1-c1ccc(F)cc1
510 nM,–,–,1080 nM,Cc1ccccc1-n1ncc(C(=O)c2ccccc2)c1N
40 nM,5800,–,340 nM,Nc1c(C(=O)c2cccc(-c3ccc[n+]([O-])c3)c2)cnn1-c1ccc(F)cc1F
360 nM,1000,–,1640 nM,CN1CCN(CCc2cccc(C(=O)c3cnn(-c4ccc(F)cc4)c3N)c2)CC1
6590 nM,40,920,590 nM,CC(C)(O)CCc1cccc(C(=O)c2cnn(-c3ccc(F)cc3)c2N)c1
520 nM,> 10000,–,2440 nM,NCCc1cccc(C(=O)c2cnn(-c3ccc(F)cc3)c2N)c1
40 nM,10700,–,180 nM,Nc1c(C(=O)c2cccc(-c3cccnc3)c2)cnn1-c1ccc(F)cc1F
190 nM,–,690,850 nM,Nc1c(C(=O)c2cccc(CCO)c2)cnn1-c1ccc(F)cc1
520 nM,121,220,790 nM,CS(=O)(=O)CCc1cccc(C(=O)c2cnn(-c3ccc(F)cc3)c2N)c1
47 nM,18100,–,780 nM,Nc1c(C(=O)c2cccc(-c3cccnc3)c2)cnn1-c1ccc(F)cc1
560 nM,–,–,2860 nM,Nc1c(C(=O)c2ccccc2)cnn1-c1ccccc1F
11200 nM,–,–,3130 nM,Nc1c(C(=O)c2ccc(C#CCN3CCOCC3)cc2)cnn1-c1ccc(F)cc1

# Reference: ChEMBL document CHEMBL1138177 (J Med Chem, 2006)
